# Reference: patent US20230286970A1, “NOVEL OXADIAZOLE-BASED SELECTIVE HDAC6 INHIBITORS” (ITALFARMACO S.P.A., priority 2020, published 2023)
# Key:
# recombinant human HDAC6 = recombinant human HDAC6 (Homo sapiens (Human), UniProt Q9UBN7); assay: Enzymatic screening, HDAC6 inhibition (fluorogenic FdL_G substrate); format: biochemical
# Method in brief: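 Enzyme was preincubated with compound (8 doses, triplicate, 1% DMSO) in 25 mM Tris-HCl pH 8, 130 mM NaCl, 0.05% Tween-20, 10% glycerol, with BSA. A FLUOR DE LYS-Green substrate was then added, and fluorescence was read after developer plus 2 μM TSA.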
# recombinant human HDAC1 = recombinant human HDAC1 (Homo sapiens (Human), UniProt Q13547); assay: Enzymatic screening, HDAC1 inhibition (fluorogenic FdL_G substrate); format: biochemical
# Method in brief: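 Recombinant human HDAC1 inhibition was measured fluorometrically using the FLUOR DE LYS-Green (FdL_G) substrate. Compounds at 8 doses (1% DMSO final) in Tris-HCl pH 8 buffer with NaCl, Tween-20 and glycerol were preincubated in triplicate with enzyme and 1 mg/mL BSA, then given substrate. Developer I plus 2 μM TSA was added, and fluorescence read after 25 minutes in the dark.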
# recombinant human HDAC1, sequence (Q13547 whole entry): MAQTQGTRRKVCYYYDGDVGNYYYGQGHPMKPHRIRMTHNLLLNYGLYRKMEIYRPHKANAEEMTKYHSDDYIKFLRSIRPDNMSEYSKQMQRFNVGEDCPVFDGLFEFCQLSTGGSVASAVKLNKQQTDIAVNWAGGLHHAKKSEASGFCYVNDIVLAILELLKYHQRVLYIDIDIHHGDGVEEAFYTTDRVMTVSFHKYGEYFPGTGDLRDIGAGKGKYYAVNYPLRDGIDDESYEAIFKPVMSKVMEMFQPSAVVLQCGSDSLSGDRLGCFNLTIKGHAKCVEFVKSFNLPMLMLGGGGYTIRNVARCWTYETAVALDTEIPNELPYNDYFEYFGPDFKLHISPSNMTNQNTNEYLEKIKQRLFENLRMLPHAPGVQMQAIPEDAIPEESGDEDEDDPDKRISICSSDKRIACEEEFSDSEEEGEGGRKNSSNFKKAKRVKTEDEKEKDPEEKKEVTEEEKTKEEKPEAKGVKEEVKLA
# recombinant human HDAC6, sequence (Q9UBN7 whole entry): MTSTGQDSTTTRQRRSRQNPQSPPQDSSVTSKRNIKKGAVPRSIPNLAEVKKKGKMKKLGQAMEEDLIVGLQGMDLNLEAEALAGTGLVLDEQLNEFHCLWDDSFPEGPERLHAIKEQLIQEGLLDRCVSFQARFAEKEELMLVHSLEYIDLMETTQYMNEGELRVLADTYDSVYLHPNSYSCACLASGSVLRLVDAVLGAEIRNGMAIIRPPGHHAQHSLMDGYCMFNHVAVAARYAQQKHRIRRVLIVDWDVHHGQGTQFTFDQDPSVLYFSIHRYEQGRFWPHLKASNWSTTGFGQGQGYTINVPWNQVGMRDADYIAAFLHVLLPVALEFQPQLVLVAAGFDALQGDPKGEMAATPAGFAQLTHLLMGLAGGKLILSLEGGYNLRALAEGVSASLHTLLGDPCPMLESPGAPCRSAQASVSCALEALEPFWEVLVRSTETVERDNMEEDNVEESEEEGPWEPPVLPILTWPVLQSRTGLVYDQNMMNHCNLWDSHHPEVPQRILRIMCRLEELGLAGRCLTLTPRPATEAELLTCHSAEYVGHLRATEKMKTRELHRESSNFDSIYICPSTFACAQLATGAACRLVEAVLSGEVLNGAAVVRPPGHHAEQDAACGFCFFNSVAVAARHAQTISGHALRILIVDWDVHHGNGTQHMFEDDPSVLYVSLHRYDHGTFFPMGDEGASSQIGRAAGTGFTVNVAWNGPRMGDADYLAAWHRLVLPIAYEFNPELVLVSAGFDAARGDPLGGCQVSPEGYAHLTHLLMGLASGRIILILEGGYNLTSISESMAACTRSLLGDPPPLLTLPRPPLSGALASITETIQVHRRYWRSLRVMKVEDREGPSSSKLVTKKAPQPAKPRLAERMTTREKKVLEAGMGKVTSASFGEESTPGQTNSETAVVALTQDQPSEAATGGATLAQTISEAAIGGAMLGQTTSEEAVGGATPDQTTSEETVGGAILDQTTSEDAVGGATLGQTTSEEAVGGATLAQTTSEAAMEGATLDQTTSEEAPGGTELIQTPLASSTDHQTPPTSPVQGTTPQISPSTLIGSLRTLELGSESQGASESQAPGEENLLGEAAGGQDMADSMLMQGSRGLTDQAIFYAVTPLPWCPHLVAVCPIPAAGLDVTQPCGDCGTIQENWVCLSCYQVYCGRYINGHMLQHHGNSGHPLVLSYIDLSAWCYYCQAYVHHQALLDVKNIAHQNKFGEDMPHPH
SMILES,IC50 (recombinant human HDAC6),IC50 (recombinant human HDAC1)
"CN(Cc1ccc(-c2nc(Cc3ccc(-c4nnc(C(F)F)o4)cc3)no2)cc1)C(=O)C(F)F [compound 259, N-(4-(3-(4-(5-(difluoromethyl)-1,3,4-oxadiazol-2-yl)benzyl)-1,2,4-oxadiazol-5-yl)benzyl)-2,2-difluoro-N-methylacetamide]",439 nM,> 200000 nM
"O=C1Nc2cc(-c3cn(Cc4ccc(-c5nnc(C(F)F)o5)cc4)nn3)ccc2NC12CCNCC2 [compound 277, 6′-(1-(4-(5-(difluoromethyl)-1,3,4-oxadiazol-2-yl)benzyl)-1H-1,2,3-triazol-4-yl)-1′,4′-dihydro-3′H-spiro[piperidine-4,2′-quinoxalin]-3′-one]",72 nM,166000 nM
"Nc1ncc2cc(-c3nnn(Cc4cc(F)c(-c5nnc(C(F)F)o5)cc4F)n3)ccc2n1 [compound 423, 6-(2-(4-(5-(difluoromethyl)-1,3,4-oxadiazol-2-yl)-2,5-difluorobenzyl)-2H-tetrazol-5-yl)quinazolin-2-amine]",99 nM,1e+06 nM
"O=C(Nc1cc(-c2nnn(Cc3c(F)cc(-c4nnc(C(F)F)o4)cc3F)n2)ccc1OC(=O)N1CCOCC1)N1CCOCC1 [compound 196, 4-(2-(4-(5-(difluoromethyl)-1,3,4-oxadiazol-2-yl)-2,6-difluorobenzyl)-2H-tetrazol-5-yl)-2-(morpholine-4-carboxamido)phenyl morpholine-4-carboxylate]",107 nM,> 200000 nM
"FC(F)c1nnc(-c2ccc(Cn3nnnc3-c3cccc(-n4cccn4)c3)cc2)o1 [compound 289, 2-(4-((5-(3-(1H-pyrazol-1-yl)phenyl)-1H-tetrazol-1-yl)methyl)phenyl)-5-(difluoromethyl)-1,3,4-oxadiazole]",203 nM,> 200000 nM
"FC(F)c1nnc(-c2ccc(Cn3nnnc3-c3ncccn3)cc2)o1 [compound 287, 2-(difluoromethyl)-5-(4-((5-(pyrimidin-2-yl)-1H-tetrazol-1-yl)methyl)phenyl)-1,3,4-oxadiazole]",446 nM,> 200000 nM
"FC(F)c1nnc(-c2ccc(Cn3nnc(-c4cccc(-c5ccccc5)c4)n3)cc2)o1 [compound 246, 2-(4-((5-([1,1′-biphenyl]-3-yl)-2H-tetrazol-2-yl)methyl)phenyl)-5-(difluoromethyl)-1,3,4-oxadiazole]",266 nM,> 200000 nM
"CC(=O)N(Cc1ccco1)c1cccc(-c2cn(Cc3c(F)cc(-c4nnc(C(F)F)o4)cc3F)nn2)c1 [compound 183, N-(3-(1-(4-(5-(difluoromethyl)-1,3,4-oxadiazol-2-yl)-2,6-difluorobenzyl)-1H-1,2,3-triazol-4-yl)phenyl)-N-(furan-2-ylmethyl)acetamide]",93 nM,> 200000 nM
"CN(Cc1ccncc1)Cc1ccc(-c2nnn(Cc3ccc(-c4nnc(C(F)F)o4)cc3)n2)cc1 [compound 215, N-(4-(2-(4-(5-(difluoromethyl)-1,3,4-oxadiazol-2-yl)benzyl)-2H-tetrazol-5-yl)benzyl)-N-methyl-1-(pyridin-4-yl)methanamine]",151 nM,> 200000 nM
"Nc1cc2cc(-c3cn(Cc4cc(F)c(-c5nnc(C(F)F)o5)cc4F)nn3)ccc2cn1 [compound 406, 6-[1-({4-[5-(difluoromethyl)-1,3,4-oxadiazol-2-yl]-2,5-difluorophenyl}methyl)-1H-1,2,3-triazol-4-yl]isoquinolin-3-amine]",85 nM,1e+06 nM
"Cn1c(N)nc2cc(-n3cc(Cc4ccc(-c5nnc(C(F)F)o5)cc4)nn3)ccc21 [compound 414, 5-[4-({4-[5-(difluoromethyl)-1,3,4-oxadiazol-2-yl]phenyl}methyl)-1H-1,2,3-triazol-1-yl]-1-methyl-1H-1,3-benzodiazol-2-amine]",461 nM,1e+06 nM
"CC(C)(C)OC(=O)N1CCC2(CC1)Nc1cc(-c3cn(Cc4ccc(-c5nnc(C(F)F)o5)cc4)nn3)ccc1NC2=O [compound 268, tert-butyl 7′-(1-(4-(5-(difluoromethyl)-1,3,4-oxadiazol-2-yl)benzyl)-1H-1,2,3-triazol-4-yl)-3′-oxo-3′,4′-dihydro-1′H-spiro[piperidine-4,2′-quinoxaline]-1-carboxylate]",254 nM,> 200000 nM
"Nc1ncc(-c2cccc(-c3nnn(Cc4ccc(-c5nnc(C(F)F)o5)cc4)n3)c2)s1 [compound 200, 5-(3-(2-(4-(5-(difluoromethyl)-1,3,4-oxadiazol-2-yl)benzyl)-2H-tetrazol-5-yl)phenyl)thiazol-2-amine]",113 nM,> 200000 nM
"CCNc1ncc2cc(-c3cn(Cc4cc(F)c(-c5nnc(C(F)F)o5)cc4F)nn3)ccc2n1 [compound 394, 6-[1-({4-[5-(difluoromethyl)-1,3,4-oxadiazol-2-yl]-2,5-difluorophenyl}methyl)-1H-1,2,3-triazol-4-yl]-N-ethylquinazolin-2-amine]",264 nM,1e+06 nM
"Nc1cc2cc(-c3cn(Cc4ccc(-c5nnc(C(F)F)o5)cc4Cl)nn3)ccc2cn1 [compound 404, 6-(1-(2-chloro-4-(5-(difluoromethyl)-1,3,4-oxadiazol-2-yl)benzyl)-1H-1,2,3-triazol-4-yl)isoquinolin-3-amine]",178 nM,1e+06 nM
"CN1CCc2ccc(-c3nnn(Cc4ccc(-c5nnc(C(F)F)o5)cc4)n3)cc2C1=O [compound 173, 7-(2-(4-(5-(difluoromethyl)-1,3,4-oxadiazol-2-yl)benzyl)-2H-tetrazol-5-yl)-2-methyl-3,4-dihydroisoquinolin-1 (2H)-one]",86 nM,> 200000 nM

# These reach a lower IC50 (recombinant human HDAC6). Values come first.
IC50 (recombinant human HDAC6),IC50 (recombinant human HDAC1),SMILES
66 nM,> 200000 nM,"FC(F)c1nnc(-c2ccc(Cn3nnc(-c4cccc5cnccc45)n3)cc2)o1 [compound 153, 2-(difluoromethyl)-5-(4-((5-(isoquinolin-5-yl)-2H-tetrazol-2-yl)methyl)phenyl)-1,3,4-oxadiazole]"
34 nM,> 200000 nM,"FC(F)c1nnc(-c2ccc(Cn3nnc(-c4ccc(CN5CCCCC5)cc4)n3)cc2)o1 [compound 87, 2-(difluoromethyl)-5-(4-((5-(4-(piperidin-1-ylmethyl)phenyl)-2H-tetrazol-2-yl)methyl)phenyl)-1,3,4-oxadiazole]"
60 nM,> 200000 nM,"NCC(=O)Nc1cccc(-c2cn(Cc3c(F)cc(-c4nnc(C(F)F)o4)cc3F)nn2)c1 [Compd. 144, 2-amino-N-(3-(1-(4-(5-(difluoromethyl)-1,3,4-oxadiazol-2-yl)-2,6-difluorobenzyl)-1H-1,2,3-triazol-4-yl)phenyl)acetamide]"
25 nM,> 200000 nM,"CN1CCN(c2cccc(-c3nnn(Cc4ccc(-c5nnc(C(F)F)o5)cc4)n3)c2)CC1 [compound 58, 2-(difluoromethyl)-5-(4-((5-(3-(4-methylpiperazin-1-yl)phenyl)-2H-tetrazol-2-yl)methyl)phenyl)-1,3,4-oxadiazole]"
35 nM,> 200000 nM,"Nc1ccc(-c2nnn(Cc3ncc(-c4nnc(C(F)F)o4)cn3)n2)cn1 [compound 77, 5-(2-((5-(5-(difluoromethyl)-1,3,4-oxadiazol-2-yl)pyrimidin-2-yl)methyl)-2H-tetrazol-5-yl)pyridin-2-amine]"
53 nM,> 200000 nM,"FC(F)c1nnc(-c2ccc(Cn3cc(-c4ccc5nc(Cl)[nH]c5c4)nn3)cc2)o1 [compound 136, 2-(4-((4-(2-chloro-1H-benzo[d]imidazol-6-yl)-1H-1,2,3-triazol-1-yl)methyl)phenyl)-5-(difluoromethyl)-1,3,4-oxadiazole]"
43 nM,> 1e+06 nM,"[2H]C([2H])(c1ccc(-c2nnc(C(F)F)o2)cc1)n1cc(-c2ccc(N)nc2)nn1 [compound 356, 5-[1-[dideuterio-[4-[5-(difluoromethyl)-1,3,4-oxadiazol-2-yl]phenyl]methyl]triazol-4-yl]pyridin-2-amine]"
38 nM,> 200000 nM,"O=C(Nc1cccc(-c2nnn(Cc3c(F)cc(-c4nnc(C(F)F)o4)cc3F)n2)c1)N1CCOCC1 [compound 98, N-(3-(2-(4-(5-(difluoromethyl)-1,3,4-oxadiazol-2-yl)-2,6-difluorobenzyl)-2H-tetrazol-5-yl)phenyl)morpholine-4-carboxamide]"
35 nM,> 1e+06 nM,"Nc1ccc(-c2cn(Cc3ncc(-c4nnc(C(F)F)o4)cc3F)nn2)cn1 [compound 304, 5-[1-[[5-[5-(difluoromethyl)-1,3,4-oxadiazol-2-yl]-3-fluoropyridin-2-yl]methyl]triazol-4-yl]pyridin-2-amine]"
25 nM,> 1e+06 nM,"CS(=O)(=O)NCC[C@H](c1ccc(-c2nnc(C(F)F)o2)cc1)n1cc(-c2ccc(N)nc2)nn1 [compound 311, N-[(3R)-3-[4-(6-aminopyridin-3-yl)triazol-1-yl]-3-[4-[5-(difluoromethyl)-1,3,4-oxadiazol-2-yl]phenyl]propyl]methanesulfonamide]"
16 nM,> 200000 nM,"Nc1cc(-c2nnn(Cc3ccc(-c4nnc(C(F)F)o4)cc3)n2)ccc1O [compound 35, 2-amino-4-(2-(4-(5-(difluoromethyl)-1,3,4-oxadiazol-2-yl)benzyl)-2H-tetrazol-5-yl)phenol]"
18 nM,> 1e+06 nM,"CC1(C)C(=O)Nc2ccc(-c3cn(Cc4ccc(-c5nnc(C(F)F)o5)cn4)nn3)cc21 [compound 324, 5-[1-[[5-[5-(difluoromethyl)-1,3,4-oxadiazol-2-yl]pyridin-2-yl]methyl]triazol-4-yl]-3,3-dimethyl-1H-indol-2-one]"
26 nM,> 1e+06 nM,"Cn1c(N)nc2cc(-c3nnn(Cc4ccc(-c5nnc(C(F)F)o5)cc4F)n3)ccc21 [compound 348, 5-[2-[[4-[5-(difluoromethyl)-1,3,4-oxadiazol-2-yl]-2-fluorophenyl]methyl]tetrazol-5-yl]-1-methylbenzimidazol-2-amine]"
